Measured values as given in BindingDB's records for doi:10.1016/0960-894X(95)00091-7 (1995).

What was measured:
[1] = Compound was tested for its affinity towards Alpha-2 adrenergic receptor
[2] = Compound was tested for its ability inhibit forskolin-stimulated activity of adenylate cyclase coupled to human 5-HT 1D-beta receptor in CHO-K1 cells
[3] = Compound was tested for its ability inhibit forskolin-stimulated activity of adenylate cyclase coupled to human 5-hydroxytryptamine 1D receptor beta in CHO-K1 cells; value ranges from 0.24-0.55
[4] = Compound was tested for its ability inhibit forskolin-stimulated activity of adenylate cyclase coupled to human 5-hydroxytryptamine 1D receptor beta in CHO-K1 cells; value ranges from 2.8-6.5
[5] = Binding affinity towards cloned human 5-hydroxytryptamine 1D receptor beta was determined
[6] = Compound was tested for its ability inhibit forskolin-stimulated activity of adenylate cyclase coupled to human 5-HT 1D-beta receptor in CHO-K1 cells; remark: listed apart in the source
[7] = Compound was tested for its ability inhibit forskolin-stimulated activity of adenylate cyclase coupled to human 5-hydroxytryptamine 1D receptor beta in CHO-K1 cells; value ranges from 0.24-0.55; remark: listed apart in the source

## Cc1ccccc1N1CCN(C(=O)COc2ccc3[nH]cc(CCN)c3c2)CC1
[1]
  IC50: > 10 µM

## CCCCCCCCCOc1ccc2[nH]cc(CCN)c2c1 [2-(5-Nonyloxy-1H-indol-3-yl)-ethylamine]
[2]
  EC50: 68 nM

## NCCc1c[nH]c2ccc(OCC(=O)N3CCN(c4cccc5ccccc45)CC3)cc12 [2-[3-(2-Amino-ethyl)-1H-indol-5-yloxy]-1-(4-naphthalen-1-yl-piperazin-1-yl)-ethanone]
[3]
  Ki: 0.52 nM
[4]
  EC50: 2.8 nM
[1]
  IC50: > 1 µM

## NCCc1c[nH]c2ccc(OCC(=O)N3CCN(c4ccccc4)CC3)cc12 [2-[3-(2-Amino-ethyl)-1H-indol-5-yloxy]-1-(4-phenyl-piperazin-1-yl)-ethanone]
[5]
  Ki: 0.6 nM
[6]
  EC50: 0.45 nM

## COc1cccc(N2CCN(C(=O)COc3ccc4[nH]cc(CCN)c4c3)CC2)c1 [2-[3-(2-Amino-ethyl)-1H-indol-5-yloxy]-1-[4-(3-methoxy-phenyl)-piperazin-1-yl]-ethanone]
[5]
  Ki: 0.4 nM
[7]
  EC50: 0.24 nM
